Test results from patent US11873291B2, “Quinoline cGAS antagonist compounds” (ImmuneSensor Therapeutics, Inc., priority 2020, dated 2024).
pIC50: −log10 of the molar value. Read-outs that look alike come from different tables or passages of the source.

Assays:
[1] = target: T1, recombinant human cGAS (aa147-522) (Homo sapiens, UniProt Q8N884); assay: In vitro inhibition assay of cGAS activity (ATP consumption, KinaseGlo Max); type: biochemical
T1 construct: recombinant human cGAS (aa147-522); His6-SUMO (cleaved yes); made in house; host or cells: E. coli BL21/pLys
Procedure, shortened: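 IC50 came from plotting % ATP consumption against log compound concentration, with leftover ATP detected by KinaseGlo Max chemiluminescence. Reactions ran 20 min at 37 °C with 1.5 μg/mL human cGAS (aa147-522), 6.6 μM ATP, 0.1 mM GTP and 0.01 mg/mL DNA at pH 7.5.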

[2] = test system: cGAS activity in Reporter THP1 cell line; assay: Cellular assay to measure cGAS activity: ISRE-Gaussia luciferase reporter THP1 cells transfected with ISD; type: cell-based; conditions: Homo sapiens
Procedure, shortened: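 THP1 ISRE-Gaussia luciferase reporter cells (0.3×10^6/well) pre-incubated 5 min with compound serial dilutions, then lipofectamine-transfected with 2 μg/mL ISD (45 bp DNA) or mock. Secreted luciferase read 16 h later with 1 μM coelenterazine at pH 6.5; IC50 from fold increase over mock. Specificity counter-screen used 2 μg/mL poly(I:C) or Sendai virus 50 Unit/mL.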

[3] = Table 3, read-out: cGAS Inhibition Results IC50
[4] = THP-1, Table 4, Gaussia luciferase
[5] = THP-1, untitled table after Table 4 (continuation)
[6] = Table 2, read-out: cGAS Inhibition Results IC50

T1 sequence (Q8N884 147-522): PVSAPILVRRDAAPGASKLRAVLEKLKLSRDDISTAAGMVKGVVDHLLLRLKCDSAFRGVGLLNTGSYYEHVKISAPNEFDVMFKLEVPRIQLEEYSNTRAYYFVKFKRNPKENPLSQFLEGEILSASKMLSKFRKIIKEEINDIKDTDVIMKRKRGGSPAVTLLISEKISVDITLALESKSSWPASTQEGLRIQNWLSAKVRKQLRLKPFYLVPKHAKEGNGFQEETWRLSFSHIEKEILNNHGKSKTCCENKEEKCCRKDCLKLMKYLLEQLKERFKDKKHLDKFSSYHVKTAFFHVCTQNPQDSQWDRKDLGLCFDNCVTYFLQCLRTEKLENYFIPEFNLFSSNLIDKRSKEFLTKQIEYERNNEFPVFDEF

pIC50 [1, 3] | pIC50 [2, 4] | pIC50 [2, 5] | pIC50 [1, 6] | Compound
> 5.70 | < 5.00 | – | – | O=C(O)CCOC[C@@H]1[C@@H](O)CCN1c1cc(-n2ccnc2)c2ccc(Cl)c(Cl)c2n1 [I-698]
> 5.70 | – | > 5.70 | – | CC(C)(C)O[C@@H]1C[C@@H](COCCC(=O)O)N(c2cc(-n3ccnc3)c3ccc(Cl)c(Cl)c3n2)C1 [I-796]
> 5.70 | – | > 5.70 | – | O=C(O)CCOC[C@@H]1CCN(c2cc(-n3ccnc3)c3ccc(Cl)c(Cl)c3n2)C1 [I-773]
> 5.70 | 5.00 to 5.70 | – | – | O=C(O)[C@@H]1[C@@H]2C[C@@H]2CN1c1cc(-n2ccnc2)c2ccc(Cl)c(Cl)c2n1 [I-470]
> 5.70 | > 5.70 | – | – | C[C@@]1(COCCC(=O)O)CCCN1c1cc(-n2ccnc2)c2ccc(Cl)c(Cl)c2n1 [I-696]
> 5.70 | – | < 5.00 | – | N#CNC(=O)COC[C@@H]1CCCN1c1cc(-n2ccnc2)c2ccc(Cl)c(Cl)c2n1 [I-762]
4.52 to 5.70 | 5.00 to 5.70 | – | – | Clc1ccc2c(-n3ccnc3)cc(N3CCCC3c3ncc[nH]3)nc2c1Cl (centres unmarked) [I-467]
– | 5.00 to 5.70 | – | > 5.70 | O=C(O)C[C@@H]1CCCN1c1cc(-n2ccnc2)c2ccc(Cl)c(Cl)c2n1 [I-443]
> 5.70 | > 5.70 | – | – | COC(=O)CCOC[C@@H]1CCCN1c1cc(-n2ccnc2)c2ccc(Cl)c(Cl)c2n1 [I-665, methyl (S)-3-((1-(7,8-dichloro-4-(1H-imidazol-1-yl)quinolin-2-yl)pyrrolidin-2-yl)methoxy)propanoate]
4.52 to 5.70 | – | < 5.00 | – | C[C@H]1[C@@H](C(=O)O)N(c2cc(-n3ccnc3)c3ccc(Cl)c(Cl)c3n2)C[C@@H]1O [I-780]
> 5.70 | – | < 5.00 | – | O=C(O)CCCCCNc1cc(-c2cn[nH]c2)c2cc(Cl)cc(Cl)c2n1 [I-854]
> 5.70 | > 5.70 | – | – | O=C(O)[C@@H]1C[C@@H]2C[C@@H]2N1c1cc(-n2ccnc2)c2ccc(Cl)c(Cl)c2n1 [I-469]
> 5.70 | – | < 5.00 | – | O=C(O)[C@@H]1[C@H](CO)CCN1c1cc(-n2ccnc2)c2ccc(Cl)c(Cl)c2n1 (racemic) [I-782, 1-(7,8-dichloro-4-(1H-imidazol-1-yl)quinolin-2-yl)-3-(hydroxymethyl)pyrrolidine-2-carboxylic acid]
> 5.70 | – | > 5.70 | – | O=C(O)CCOC[C@@H]1C[C@H](C(F)(F)F)CN1c1cc(-n2ccnc2)c2ccc(Cl)c(Cl)c2n1 [I-793]
> 5.70 | > 5.70 | – | – | C[C@H]1C[C@@H](COCCC(=O)O)N(c2cc(-n3ccnc3)c3ccc(Cl)c(Cl)c3n2)C1 [I-708]
> 5.70 | > 5.70 | – | – | O=C(O)CCOC[C@@H]1C[C@H](Oc2ccccc2)CN1c1cc(-n2ccnc2)c2ccc(Cl)c(Cl)c2n1 [I-713]
> 5.70 | – | > 5.70 | – | O=C(O)Cc1cc(F)cc(CNc2cc(-n3ccnc3)c3ccc(Cl)c(Cl)c3n2)c1 [I-891, 2-(3-(((7,8-dichloro-4-(1H-imidazol-1-yl)quinolin-2-yl)amino)methyl)-5-fluorophenyl)acetic acid]
> 5.70 | 5.00 to 5.70 | – | – | O=C(O)CCOC[C@@H]1[C@H]2C[C@H]2CN1c1cc(-n2ccnc2)c2ccc(Cl)c(Cl)c2n1 [I-710]
> 5.70 | > 5.70 | – | – | O=C(O)CCOC[C@@H]1CC(F)(F)CN1c1cc(-n2ccnc2)c2ccc(Cl)c(Cl)c2n1 [I-699]

pIC50 [1, 3] | pIC50 [2, 4] | pIC50 [2, 5] | pIC50 [1, 6] | Compound
> 5.70 | – | > 5.70 | – | O=C(O)Cc1cccc(CNc2cc(-n3ccnc3)c3ccc(Cl)c(Cl)c3n2)c1 [I-844]
> 5.70 | – | 5.00 to 5.70 | – | COC(=O)C[C@@H]1[C@@H](O)CCN1c1cc(-n2ccnc2)c2ccc(Cl)c(Cl)c2n1 [I-786, methyl 2-((2R,3S)-1-(7,8-dichloro-4-(1H-imidazol-1-yl)quinolin-2-yl)-3-hydroxypyrrolidin-2-yl)acetate]
> 5.70 | > 5.70 | – | – | O=C(O)CCOC[C@@H]1CC2(CC2)CN1c1cc(-n2ccnc2)c2ccc(Cl)c(Cl)c2n1 [I-709]
> 5.70 | – | > 5.70 | – | COc1ccc(-c2cc(-n3ccnc3)c3ccc(Cl)c(Cl)c3n2)cc1COCCC(=O)O [I-884]
> 5.70 | > 5.70 | – | – | O=C(OCC(F)(F)F)[C@@H]1[C@@H](O)CCN1c1cc(-n2ccnc2)c2ccc(Cl)c(Cl)c2n1 [I-556]
> 5.70 | – | > 5.70 | – | CN(Cc1cccc(CC(=O)O)c1)c1cc(-n2ccnc2)c2ccc(Cl)c(Cl)c2n1 [I-845]
> 5.70 | – | > 5.70 | – | O=C(O)CCCCCNc1cc(-c2cn[nH]c2)c2ccc(Cl)c(Cl)c2n1 [I-830]
> 5.70 | 5.00 to 5.70 | – | – | O=C(O)CCOC[C@H]1CCCN1c1cc(-n2ccnc2)c2ccc(Cl)c(Cl)c2n1 [I-674]
> 5.70 | > 5.70 | – | – | O=C(O)c1ccccc1OC[C@@H]1CCCN1c1cc(-n2ccnc2)c2ccc(Cl)c(Cl)c2n1 [I-733]
> 5.70 | > 5.70 | – | – | COC(=O)[C@@H]1CC2C[C@@H]2N1c1cc(-n2ccnc2)c2ccc(Cl)c(Cl)c2n1 (some centres unmarked) [I-576]
> 5.70 | < 5.00 | – | – | O=C(O)CCOCC1CN(c2cc(-n3ccnc3)c3ccc(Cl)c(Cl)c3n2)C1 [I-689]
– | 5.00 to 5.70 | – | > 5.70 | O=C(O)[C@@H]1CCCN1c1cc(-c2cn[nH]c2)c2ccc(Cl)c(Cl)c2n1 [I-435]
– | 5.00 to 5.70 | – | > 5.70 | O=C(O)[C@@H]1CCCN1c1cc(-n2ccnc2)c2ccc(Cl)c(Cl)c2n1 [I-428]
> 5.70 | – | < 5.00 | – | O=C(O)CCC(=O)NNc1cc(-n2ccnc2)c2ccc(Cl)c(Cl)c2n1 [I-759]
> 5.70 | > 5.70 | – | – | O=C(O)CCCC1CCCN(c2cc(-n3ccnc3)c3ccc(Cl)c(Cl)c3n2)C1 (centres unmarked) [I-739]
4.52 to 5.70 | > 5.70 | – | – | CC(C)OC(=O)[C@@H]1[C@@H](O)CCN1c1cc(-n2ccnc2)c2ccc(Cl)c(Cl)c2n1 [I-600]
4.52 to 5.70 | > 5.70 | – | – | CCOC(=O)[C@@H]1[C@@H](O)CCN1c1cc(-n2ccnc2)c2ccc(Cl)c(Cl)c2n1 [I-599]
> 5.70 | – | 5.00 to 5.70 | – | O=C1C[C@@H]2[C@@H](CCN2c2cc(-n3ccnc3)c3ccc(Cl)c(Cl)c3n2)O1 [I-774, (3aR,6aR)-4-(7,8-dichloro-4-(1H-imidazol-1-yl)quinolin-2-yl)hexahydro-2H-furo[3,2-b]pyrrol-2-one]
4.52 to 5.70 | – | < 5.00 | – | O=C(O)CCOC[C@@H]1CCCN1c1cc(-c2cn[nH]c2)c2c(Cl)cc(Cl)cc2n1 [I-855]

pIC50 [1, 3] | pIC50 [2, 4] | pIC50 [2, 5] | pIC50 [1, 6] | Compound
> 5.70 | – | < 5.00 | – | O=C(O)C[C@@H]1[C@H](O)CCN1c1cc(-n2ccnc2)c2ccc(Cl)c(Cl)c2n1 [I-781, 2-((2R,3R)-1-(7,8-dichloro-4-(1H-imidazol-1-yl)quinolin-2-yl)-3-hydroxypyrrolidin-2-yl)acetic acid]
4.52 to 5.70 | 5.00 to 5.70 | – | – | COC(=O)[C@@H]1C[C@H]2C[C@H]2N1c1cc(-n2ccnc2)c2ccc(Cl)c(Cl)c2n1 [I-591]
> 5.70 | – | 5.00 to 5.70 | – | O=C(O)CCCCCCNc1cc(-n2ccnc2)c2ccc(Cl)c(Cl)c2n1 [I-831]
> 5.70 | 5.00 to 5.70 | – | – | O=C(O)C1CC(OC[C@@H]2CCCN2c2cc(-n3ccnc3)c3ccc(Cl)c(Cl)c3n2)C1 (some centres unmarked) [I-723]
4.52 to 5.70 | > 5.70 | – | – | COC(=O)[C@@H]1CC(C)(C)CN1c1cc(-n2ccnc2)c2ccc(Cl)c(Cl)c2n1 [I-583]
> 5.70 | > 5.70 | – | – | CN(CCCCCC(=O)O)c1cc(-n2ccnc2)c2ccc(Cl)c(Cl)c2n1 [I-691]
> 5.70 | – | 5.00 to 5.70 | – | O=C(O)CCOC[C@@H]1Cc2ccccc2N1c1cc(-n2ccnc2)c2ccc(Cl)c(Cl)c2n1 [I-806]
– | < 5.00 | – | > 5.70 | COc1ccc(-c2cc(-n3ccnc3)c3ccc(Cl)cc3n2)cc1C(=O)O [I-15]
> 5.70 | > 5.70 | – | – | O=C(O)Cc1ccccc1OC[C@@H]1CCCN1c1cc(-n2ccnc2)c2ccc(Cl)c(Cl)c2n1 [I-734]
> 5.70 | > 5.70 | – | – | O=C(O)CCCC[C@@H]1CCCN1c1cc(-n2ccnc2)c2ccc(Cl)c(Cl)c2n1 [I-683]
– | < 5.00 | – | > 5.70 | NC(=O)[C@@H]1CCCN1c1cc(-n2ccnc2)c2ccc(Cl)c(Cl)c2n1 [I-448]
> 5.70 | > 5.70 | – | – | O=C(O)COC[C@H]1CCCN(c2cc(-n3ccnc3)c3ccc(Cl)c(Cl)c3n2)C1 [I-743]
> 5.70 | > 5.70 | – | – | O=C(O)CCOC[C@H]1CCCN(c2cc(-n3ccnc3)c3ccc(Cl)c(Cl)c3n2)C1 [I-745]
4.52 to 5.70 | – | < 5.00 | – | COC(=O)CCC(=O)NNc1cc(-n2ccnc2)c2ccc(Cl)c(Cl)c2n1 [I-758]
> 5.70 | – | > 5.70 | – | C=C1C[C@@H](COCCC(=O)O)N(c2cc(-n3ccnc3)c3ccc(Cl)c(Cl)c3n2)C1 [I-801]
– | 5.00 to 5.70 | – | > 5.70 | O=C1CN(c2cc(-n3ccnc3)c3ccc(Cl)c(Cl)c3n2)CCCN1 [I-86]
– | < 5.00 | – | > 5.70 | O=C(O)[C@@H]1[C@H](O)CCN1c1cc(-n2ccnc2)c2ccc(Cl)c(Cl)c2n1 [I-429]
> 5.70 | 5.00 to 5.70 | – | – | C[C@H]1CC[C@@H](C(=O)O)N1c1cc(-n2ccnc2)c2ccc(Cl)c(Cl)c2n1 [I-507]

Compound | pIC50 [1, 3] | pIC50 [2, 4] | pIC50 [2, 5] | pIC50 [1, 6]
O=C(O)CCOC[C@H]1CC2CCC1N2c1cc(-n2ccnc2)c2ccc(Cl)c(Cl)c2n1 (some centres unmarked) [I-811] | > 5.70 | – | > 5.70 | –
O=C(O)CCOCC1CC2CCC1N2c1cc(-n2ccnc2)c2ccc(Cl)c(Cl)c2n1 (centres unmarked) [I-807] | > 5.70 | – | > 5.70 | –
